Experimental findings from patent US5525627A, “Esters of acyl carnitines with long-chain aliphatic alcohols and pharmaceutical compositions containing same having antimycotic activity” (Sigma-Tau Industrie Farmaceutiche Riunite S.p.A., priority 1992, dated 1996) are described below.

Structures are written as SMILES.

What all share (assay): MIC for filamentous fungi
Common to all, as to format: cell-based

Assay [1] deals with Aspergillus fumigatus (2/A). The following applies: read-out: Minimal Inhibitory Concentration (MIC). In a few lines:
(§1)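 Conidia from 72-hour Sabouraud agar cultures were collected by washing with Sabouraud medium containing Tween 80. They were then inoculated at 5.0×10^4 CFU/ml, and the run and MIC/MFC readings followed the yeast-like fungi procedure.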

A further assay deals with Mucor mucedo (ATCC 7941). The following applies: ATCC7941, read-out: Minimal Inhibitory Concentration (MIC). In outline:
as §1

The subject of assay [2] is Aspergillus fumigatus (1/A). The following applies: read-out: Minimal Inhibitory Concentration (MIC). In a few lines:
as §1

For assay [3], the system named is Aspergillus fumigatus (C/1). The following applies: read-out: Minimal Inhibitory Concentration (MIC). In outline:
as §1

The subject of assay [4] is Aspergillus fumigatus (ATCC 28212). The settings on record: ATCC28212, read-out: Minimal Inhibitory Concentration (MIC). In a few lines: as §1

As to `CCCCCCCCCCCOC(=O)C[C@H](C[N+](C)(C)C)OC(=O)CC(C)C` [ST 722, isovaleryl-L-carnitine undecyl ester chloride], the MIC was determined as 12.5 mg/L in assay [1]; 50 mg/L in the assay with Mucor mucedo (ATCC 7941); 12.5 mg/L in assay [2]; 12.5 mg/L in assay [3]; 12.5 mg/L in assay [4].
